# Legend:
# [1] = target: HLA-DRB1*0401 (Homo sapiens (Human), UniProt P01903+P01911, A100K/A169T/DEL228-266/F76Y/I96L/K127E/L162R/M171V/N62H/P40V/Q125Y/R42H/S133A/S149N/S66Y/V115G/V209L/W38E); test: HLA-DR4 HTRF assay; format: binding; conditions: inhibition of loading of Alexa Fluor 647-labeled Cit-CII peptide onto HLA-DR4 (CLIP cleaved)
# From the text: (§1) The screening was made through two sets of HLA-DR/peptide-dependent assays: a peptide-dependent Homogeneous Time Resolved Fluorescence (HTRF) binding assay followed by an HLA-DR dependent, peptide-specific T cell functional assay (HLA-DR4-restricted peptide-specific T cell-based assay hybridoma assay). The HTRF binding assay was designed to measure the ability of the small molecule to inhibit the loading of a fluorescently labeled high-affinity peptide onto HLA-DR peptide binding groove. The peptide-specific T cell functional assay assesses T cell activation resulting from proper peptide presentation onto HLA-DR expressed on the surface of the antigen-presenting cells to the T cell and is used to screen compounds able to inhibit such HLA-DR/peptide-dependent T cell activation.
# The HLA-DR4 HTRF assay is based on HTRF technology and designed to measure ability of compounds to prevent loading of high-affinity Alexa Fluor 647-labeled Citrullinated Collagen 111236-1249 peptide (named Cit-CII/AF647, aa1236-1249, LQYM-Cit-ADQAAGGLR; Alexa Fluor 647 dye commercially available from Invitrogen) onto HLA-DRB1*0401. The HTRF assay technology is based on the energy transfer between two fluorophores, a donor and an acceptor, when in close proximity. The HLA-DR4 protein construct was uniquely designed for this assay and has (i) the α and […] subunits fused to human Fc chains and (ii) the invariant chain-associated peptide (CLIP peptide, aa85-101), the universal moderate/low-affinity HLA-DR binder, attached to the beta chain through a HRV3C protease-cleavable linker.
# Because of the low stability of peptide free HLA-DR4 heterodimer, the construct was purified and delivered with CLIP peptide attached to the N-terminal of the β chain. The HLA-DR4 heterodimer was pre-treated with 3 μL HRV3C protease (Novagen E71493-3) (˜2 U/μL) per mg of the cleavable protein to cleave CLIP peptide and incubated overnight (>16 hrs) at 4° C. This method yielded at least 80% cleavage and allowed the CLIP peptide to be potentially exchanged with the fluorescently labeled high affinity cit-CII1236-1249 peptide. A batch of […] protein with CLIP cleaved was prepared for multiple experiments and was stable for several months when stored at 4° C.
# In this assay, anti-human Fc antibody labeled with Tb-Cryptate probe was used as the donor (commercially available from Cisbio—PAb Anti-human IgG-Tb Cryptate, Cat #61HFCTAB) and high affinity peptide Citrullinated CII (cit-CII) labeled with Alexa 647 fluorophore was utilized as the acceptor. Inhibitors of the exchange of the pre-cleaved CLIP peptide for the high affinity cit-CII1236-1249 peptide onto HLA-DRB1*04:01 caused a decrease in HTRF signal as measured by the ratio of the 665 nm/620 nm emitted signal. Screening compounds were robotically pre-dispensed (150 nL, Hummingbird, DigiLab/CyBio AG) onto black, round bottom, nontreated, 1536-well assay plates (Corning #3939), were incubated with 3 nM HLA-DR4 (with CLIP cleaved) plus 1 nM Human IgG-Tb (anti-Fc-Tb) Antibody for 45 min prior to addition of 40 nM Cit-CII peptide labeled with Alexa-647. The negative control was DMSO plus 1 nM Human IgG-Tb (anti-Fc-Tb) Antibody, incubated for 45 minutes before addition of 40 nM Cit-CII peptide labeled with Alexa-647. The positive control was DMSO plus 3 nM HLA-DR4 (with CLIP cleaved) plus 1 nM Human IgG-Tb (anti-Fc-Tb) Antibody with 40 nM Cit-CII peptide labeled with Alexa-647 added after a 45-minute incubation. Plates were centrifuged at 1000 rpm for 1 minute and then incubated at 37° C., at 90% relative humidity for 90 minutes. After incubation, plates were read on a spectrophotometer, the Pherastar FS (BMG Labtech), in HTRF mode. The HTRF ratio as well as percent inhibition was calculated. Curve fitting and IC50 calculation for dose response data was performed by Microsoft Excel, 3DX (Janssen proprietary software) or Graphpad Prism (Graphpad Software, San Diego, CA). […]
# [2] = system: HLA-DR4 restricted mouse T cell hybridoma line (DR4.CII.36.8) with HLA-DRB1*04:01-expressing Boleth cells; test: HLA-DR4-restricted peptide-specific T cell-based assay (hybridoma assay); conditions: 6 h, inhibition of IL-2 production, CII259-273 peptide presented by Boleth cells
# From the text: as §1
# HLA-DR4-Restricted Peptide-Specific T Cell-Based Assay (Hybridoma Assay)
# The hybridoma assay was used to measure compound inhibition of TL-2 production from an HLA-DR4 restricted mouse T cell hybridoma line (DR4.CII.36.8) that was antigen-specific for collagen II259-273 (CII259-273) peptide when presented with an HLA-DR4 expressing Antigen Presenting Cell (APC) cell line (i.e., Boleth).
# To the HLA-DRB1*04:01-expressing B cell line (Boleth cell line from International Histocompatibility Working Group (IHWG), ref #IHW09031) was presented the collagen II 259-273 peptide (CII259-273, GIAGFKGEQGPKGEP) to mouse T cell hybridoma (DR4.CII.36.8 T cell hybridoma; clone 36.8, expressing a CII259-273-specific, HLA-DRB1*04:01-restricted T cell receptor). Upon proper CII259-273 peptide presentation, the T cell hybridoma was activated and thus produced IL-2 cytokine, whose level in the cell culture supernatant was detected using mouse IL-2 AlphaLISA kit (Perkin Elmer, Cat: AL511F).
# This assay was performed in a 384-well plate (polypropylene V-bottom Greiner bio-one, ref #784075) by: (i) pre-incubation of 20 μL of 1.25 million/mL Boleth cells (25,000 cells) resuspended in DMEM/1% fetal calf serum (FCS; Gibco, ref #16140-071) with 20 μL of 2.5× final concentration of compound of interest in DMEM/1% serum/0.75% DMSO at 37° C. for 1 hr in the incubator, then (ii) 10 μL of 5 million/mL (50,000 cells) DR4.CII.36.8 T cell hybridoma cells resuspended in DMEM/1% FCS was added and incubated for 6 h at 37° C. in the incubator. Supernatant was then collected and mouse IL-2 detected using AlphaLISA kit (ref #AL511F). Compounds were tested in duplicate, with 8-point titration. Mean±SD of AlphaLISA units at each compound concentration was used for compound IC50 calculation. The negative control for this experiment was run without peptide stimulation and used a DMSO vehicle wherein no compound of interest was added. The positive control was run with peptide stimulation and used a DMSO vehicle wherein no compound of interest was added. Both the negative and positive controls were run in 8 replicates each. Curve fitting and IC50 calculation for dose response data was performed by GraphPad software 6 or higher (GraphPad Software, San Diego, CA). Dose response data was plotted versus the log of compound concentration and IC50 was determined using 4-parameter logistic (4-PL) curve fitting.
SMILES,IC50 [1],"IC50 ([2]; Mus musculus, T-cell)",IC50 [2]
"Cc1cc([C@H](Oc2ccc3c(c2C)OC(C)(C)CC3=O)c2ccc(C(N)=O)cc2)cc(C)n1 (single isomer, unassigned) [Example 112a, (*R)-4-((2,6-dimethylpyridin-4-yl)((2,2,8-trimethyl-4-oxochroman-7-yl)oxy)methyl)benzamide]",760 nM,410 nM,–
"CCc1cc(O[C@H](c2ccncc2)c2ccc(C(N)=O)cc2)cc2c1C(=O)CCO2 (single isomer, unassigned) [Example 99b, (*S)-4-(((5-ethyl-4-oxochroman-7-yl)oxy)(pyridin-4-yl)methyl)benzamide]",> 89000 nM,5500 nM,–
"CC[C@@H]1CC(=O)c2ccc(OCc3ccncc3OC)cc2O1 (single isomer, unassigned) [Example 119a, (*R)-2-ethyl-7-((3-methoxypyridin-4-yl)methoxy)chroman-4-one]",540 nM,13000 nM,–
"Cc1c(O[C@H](c2ccc(C(N)=O)cc2)c2ccc(F)c(F)c2)c(F)cc2c1OCCC2=O (single isomer, unassigned) [Example 91a, (*R)-4-((3,4-difluorophenyl)((6-fluoro-8-methyl-4-oxochroman-7-yl)oxy)methyl)benzamide]",550 nM,7800 nM,–
"Cc1c(OC(c2ccncc2)c2ccc(C(N)=O)cc2)ccc2c1OC(C)(C)CC2=O (racemic) [Example 113, (R,S)-4-(pyridin-4-yl((2,2,8-trimethyl-4-oxochroman-7-yl)oxy)methyl)benzamide]",820 nM,1000 nM,–
"NC(=O)c1ccc([C@@H](Oc2ccc3c(c2)OCCC3=O)c2ccncc2F)cc1 (single isomer, unassigned) [Example 20a, (*R)-4-((3-fluoropyridin-4-yl)((4-oxochroman-7-yl)oxy)methyl)benzamide]",1200 nM,6900 nM,–
"Cc1cc([C@H](Oc2cc3c(cc2F)C(=O)CCO3)c2ccc(C(N)=O)cc2)cc(C)n1 (single isomer, unassigned) [Example 109a, (*R)-4-((2,6-dimethylpyridin-4-yl)((6-fluoro-4-oxochroman-7-yl)oxy)methyl)benzamide]",210 nM,–,1100 nM
"Cc1cc([C@@H](Oc2ccc3c(c2C(C)C)OCCC3=O)c2ccc(C(N)=O)cc2)cc(C)n1 (single isomer, unassigned) [Example 106b, (*S)-4-((2,6-dimethylpyridin-4-yl)((8-isopropyl-4-oxochroman-7-yl)oxy)methyl)benzamide]",740 nM,370 nM,–
"N#Cc1ccc(C(Oc2ccc3c(c2)OCCC3=O)c2ccncc2)cc1 (racemic) [Example 10, (R,S)-4-(((4-Oxochroman-7-yl)oxy)(pyridin-4-yl)methyl)benzonitrile]",770 nM,8700 nM,–
"CC(C)c1c(O[C@H](c2ccc(C(N)=O)cc2)c2cccc(C#N)c2)ccc2c1OCCC2=O (single isomer, unassigned) [Example 107a, (*R)-4-((3-cyanophenyl)((8-isopropyl-4-oxochroman-7-yl)oxy)methyl)benzamide]",940 nM,10000 nM,–
"NC(=O)c1ccc(C(Oc2ccc3c(c2)OCCC3=O)c2ccnc(C(F)(F)F)c2)cc1 (single isomer, unassigned) [Example 18a, (*R)-4-(((4-oxochroman-7-yl)oxy)(2-(trifluoromethyl)pyridin-4-yl)methyl)benzamide]",1400 nM,> 15000 nM,–
"CC(C)c1c(O[C@H](c2ccc(C(N)=O)cc2)c2ccc(C(=O)O)cc2)ccc2c1OCCC2=O (single isomer, unassigned) [Example 108a, (*R)-4-((4-carbamoylphenyl)((8-isopropyl-4-oxochroman-7-yl)oxy)methyl)benzoic acid]",860 nM,> 15000 nM,–
"N#Cc1ccccc1[C@@H](Oc1ccc2c(c1)OCCC2=O)c1ccncc1 (single isomer, unassigned) [Example 7b, (*S)-2-(((4-Oxochroman-7-yl)oxy)(pyridin-4-yl)methyl)benzonitrile]",960 nM,5400 nM,–
"Cc1c(OC2CCCc3cc(C(N)=O)ccc32)ccc2c1OCCC2=O (racemic) [Example 123, (R,S)-5-((8-Methyl-4-oxochroman-7-yl)oxy)-5,6,7,8-tetrahydronaphthalene-2-carboxamide]",520 nM,15000 nM,–
"CCOc1cc(C(N)=O)ccc1[C@@H](Oc1ccc2c(c1C)OCCC2=O)c1ccncc1 (single isomer, unassigned) [Example 83b, (*S)-3-ethoxy-4-(((8-methyl-4-oxochroman-7-yl)oxy)(pyridin-4-yl)methyl)benzamide]",690 nM,5000 nM,–
"O=C1CCOc2cc(O[C@H](c3ccncc3)c3ccc(OCc4ccccc4)cc3)ccc21 (single isomer, unassigned) [Example 16b, 7-((4-(benzyloxy)phenyl)(pyridin-4-yl)methoxy)chroman-4-one]",9900 nM,> 15000 nM,–
"Cc1c(O[C@H]2CCCc3cc(C(N)=O)ccc32)ccc2c1OCCC2=O (single isomer, unassigned) [Example 123b, (*S)-5-((8-methyl-4-oxochroman-7-yl)oxy)-5,6,7,8-tetrahydronaphthalene-2-carboxamide]",570 nM,6300 nM,–

# Source: patent US12516038B2, “Inhibitors of antigen presentation by HLA-DR” (Janssen Pharmaceutica NV, priority 2020, dated 2026)
